Experiments:
[1] = Absorption and emission of the dye; format: physicochemical
Procedure: Compound 9 (80 mg), 3-(2-carboxyethyl)phenylboronic acid (40 mg), and cesium carbonate (20 mg) were stirred into water (20 mL) under nitrogen at room temperature. Tetrakis(triphenylphosphine)palladium (0) (10 mg) were added to the reaction mixture. The mixture was refluxed for 4 h, and the solvent and volatile compounds then were evaporated under vacuum. The crude product was purified by flash chromatography on silica 60, 200-400 mesh, eluting with a 20/80 acetonitrile/water mixture. The purified compound 56 had λMeOH=680 nm, λPBS=672 nm, ε=160,000.
Fluorescence determinations were made at a fixed antibody concentration of 10 μg/mL in physiological buffer using dye-labeled goat anti-rabbit (GAR) conjugates prepared at LI-COR (FIGS. 13A-B and 14). A dye-labeled lactalbumin conjugate was also tested (FIG. 15).
20's absorbance and emission maximum is at 676 nm in aqueous solution and at 693 nm in methanol.

U87GM cells = assay: Plate-based evaluation of cell binding (on-cell Western); conditions: <0.5 μM; in comparison to a specific targeted probe
Procedure: Compound 10/RGD and 10/EGF were prepared to be used in conjunction with 10 to estimate relative non-specific binding of the dye relative to a labeled targeted agent. The on-cell Western was the format used and imaged on the Odyssey Sa.
In a plate-based evaluation of 10/RGD on U87GM cells, 10 was added to assess level of cell binding (FIG. 27).

A431 subcutaneous tumors = assay: In vivo dose testing of 10/EGF; parameters: species or system nude mice; conditions: excised organs 48 h post injection
Procedure: Testing for optimal dose in nude mice bearing A431 subcutaneous tumors was done. Four doses were tested: 0.5, 1, 2, and 3 nmoles. Two mice were used per treatment dosage. A431 tumor cells were implanted on the right hip and allowed to reach approximately 0.5 cm. FIG. 31 presents dorsal views of all animals under a common LUT.

[2] = In vivo clearance study of carboxylate 10; parameters: species or system Nude mice
Procedure: Nude mice were used for the clearance study with the carboxylate and for the targeted agent evaluation. A dose of 2 nmol 10 was administered intravenously (IV) via the tail vein of the mouse and serial imaged over the next 48 h with the Pearl Impulse imaging system. Excised organs were evaluated to assess organs with the highest retention.

[3] = test system: U87 tumor cells (integrins); assay: In vivo optical imaging with 10-labeled cyclo(RGDfK) probe; parameters: species or system Mice
Procedure: The suitability of compound 10 for in vivo optical imaging was evaluated using an 10-labeled cyclo(Arg-Gly-Asp-D-Phe-Lys) (RGDfK) probe. This probe was specifically designed to target integrins. Integrins are cell surface heterodimeric glycoproteins important in cell adhesion and signal transduction. This receptor class is involved in tumor growth, tumor invasiveness, metastasis, tumor-induced angiogenesis, inflammation, osteoporosis, and rheumatoid arthritis.
Mice were implanted with U87 tumor cells. The animals were injected and imaged while the tumors were still extremely small. This provided a good test of how visible the tumors are over any background signal that the probe detected.
Tumors were excised, weighed, and imaged on a Pearl Imager (FIG. 3).

[4] = Photostability comparison on nitrocellulose membrane; format: physicochemical; conditions: dye-labeled GAR on nitrocellulose; repeated Odyssey scans; normalized to time zero
Procedure: Test samples were prepared by spotting equimolar amounts of dye (i.e., goat anti-rabbit (GAR) secondary antibodies labeled with the appropriate dye) onto nitrocellulose membrane. The membrane was then scanned repeatedly on an Odyssey Infrared Imager, and the signal intensity was normalized to the control signal at time zero (FIG. 19A-B).

With `CC1(C)C(/C=C/C(=C/C=C2/N(CCCS(=O)(=O)[O-])c3ccc(S(=O)(=O)[O-])cc3C2(C)C)c2cccc(CCC(=O)O)c2)=Nc2c1cc(Cl)c[n+]2CCCS(=O)(=O)[O-].[Na+].[Na+]` [Compound 10] the “Extinction Coefficient” value ([1]; MeOH) was 170,000, the “Max. Abs.” value ([1]; MeOH) was 680 nm and the “Max. Emis.” value ([1]; MeOH) was 694 nm. The “Extinction Coefficient” value ([1]; PBS) was 160,000, the “Max. Abs.” value ([1]; PBS) was 672 nm and the “Max. Emis.” value ([1]; PBS) was 694 nm. The “level of cell binding” value (U87GM cells) was “low levels of cell binding”, the “signal from the tumor cells” value (A431 subcutaneous tumors) was “very little signal from the tumor cells” and the “time of signal spike” value ([2]; 2 nmol IV) was “about 1 hour”. The “retention in the kidneys” value ([2]; 2 nmol IV, 44 hr period) was “very little retention in the kidneys, if at all”, the route of clearance ([2]; 2 nmol IV, 44 hr period) was “clears via the liver/gall bladder/intestinal tract” and the “time by which total signal is dramatically reduced” value ([2]; 2 nmol IV, whole-image ROI) was ≤ 4 h. The “retention in excised organs” value ([2]; 44 hr post injection, liver, heart, kidney, spleen, intestine, muscle, tumor) was “very little retention of probe”.
For `CC1(C)C(/C=C/C(=C/C=C2\N(CCCS(=O)(=O)[O-])c3ccc(S(=O)(=O)[O-])cc3C2(C)C)c2cccc(CCC(=O)NCCCC[C@@H]3NC(=O)[C@@H](Cc4ccccc4)NC(=O)[C@H](CC(=O)[O-])NC(=O)CNC(=O)[C@H](CCCNC(=N)N)NC3=O)c2)=Nc2c1cc(Cl)c[n+]2CCCS(=O)(=O)[O-].[Na+].[Na+].[Na+]` [Compound 21, Sodium 2-((2S,5R,8S,11S)-5-benzyl-8-(4-(3-(3-((1E,3Z,5Z)-1-(5-chloro-3,3-dimethyl-7-(3-sulfonatopropyl)-3H-pyrrolo[2,3-b]pyridin-7-ium-2-yl)-5-(3,3-dimethyl-5-sulfonato-1-(3-sulfonatopropyl)indolin-2-ylidene)penta-1,3-dien-3-yl)phenyl)propanamido)butyl)-11-(3-guanidinopropyl)-3,6,9,12,15-pentaoxo-1,4,7,10,13-pentaazacyclopentadecan-2-yl)acetate], the clearance and background ([3]; 1 nmol) was “cleared the system without an undue level of background”, the “time post-injection by which tumors were visible” value ([3]; 1 nmol intravenously, two tumor-bearing mice) was ≤ 5 h and the detectability of tumors ([3]; 1 nmol, extremely small tumors (9 and 15 mg)) was “easily detectable”.
For `C[Si](C)(CCC[N+](CCCS(=O)(=O)[O-])(CCCS(=O)(=O)[O-])CCCS(=O)(=O)[O-])O[Si]1(O[Si](C)(C)CCC[N+](CCCS(=O)(=O)[O-])(CCCS(=O)(=O)[O-])CCCS(=O)(=O)[O-])n2c3c4ccccc4c2N=C2N=C(N=c4c5ccccc5c(n41)=NC1=NC(=N3)c3ccccc31)c1cccc(OCCCOC(=O)NCCCCCC(=O)ON3C(=O)CCC3=O)c12.[Na+].[Na+].[Na+].[Na+]` (centres unmarked) [Compound 700DX], the “relative fluorescence on repeated scanning (photostability)” value [4] was “unchanged”.

Reference: US9408924B2, “Bioconjugates of cyanine dyes” (LI-COR, INC., priority 2010, dated 2016)
